Starred links: 1 amine or outer side, 2 acyl side, 3 side chain; linkers in the order of their positions; H or OH if unused. Positions of bridges follow the written chain, without caps; N, C: chain ends. Non-standard residues stand in square brackets, D forms with d. Residues, ends and D or L forms follow the SMILES beside them. Chains are numbered I, II in the order given. Actinocin(9to1) = Cc1c2oc3c(C)ccc(C(=O)[*:1])c3nc-2c(C(=O)[*:2])c(N)c1=O; NMeV = CN[C@H](C(=O)O)C(C)C; Sar = CNCC(=O)O
Test system: Eμ-Mycp19^Arf−/− mouse lymphoma cells
Experiment: Drug treatment and FACS viability (propidium iodide) to determine LD80-90
Type: cell-based
Conditions: not given

Structure (SMILES)	Concentration used (LD80-90)
N.N.O=C([O-])C1(C(=O)[O-])CCC1.[Pt+2] [Carboplatin]	16.4 µM

Same assay, conditions: Mus musculus, read-out: Concentration used (LD80-90)

Structure (SMILES)	IC (80-90)
S=P(N1CC1)(N1CC1)N1CC1 [ThioTEPA]	2.1 µM

Same assay, conditions: Mus musculus; concentration at which 80-90% of uninfected lymphoma cells were killed; lowest viability of 24, 48 and 72 h between 10% and 20%; read-out: Concentration used (LD80-90)

Structure (SMILES)	IC (80-90)
O=c1[nH]cc(F)c(=O)[nH]1 [5-Fluorouracil]	0.0305 µM
Nc1nc2nc[nH]c2c(=S)[nH]1 [6-Thioguanine]	0.054 µM
COc1c(C)cnc(Cn2cnc3c(Cl)nc(N)nc32)c1C [BIIB021]	0.79 µM
CC(C)C[C@H](NC(=O)[C@H](Cc1ccccc1)NC(=O)c1cnccn1)B(O)O [Bortezomib]	0.013 µM
CS(=O)(=O)OCCCCOS(C)(=O)=O [Busulfan]	40.6 µM
Nc1ncn([C@H]2C[C@H](O)[C@@H](CO)O2)c(=O)n1 [Decitabine]	0.6 µM
COc1cccc2c1C(=O)c1c(O)c3c(c(O)c1C2=O)C[C@@](O)(C(=O)CO)C[C@@H]3O[C@H]1C[C@H](N)[C@H](O)[C@H](C)O1 [Doxorubicin]	0.0162 µM
C#Cc1cccc(Nc2ncnc3cc(OCCOC)c(OCCOC)cc23)c1 [Erlotinib]	6.5 µM
COc1cc([C@@H]2c3cc4c(cc3[C@@H](O[C@@H]3O[C@@H]5CO[C@@H](C)O[C@H]5[C@H](O)[C@H]3O)[C@H]3COC(=O)[C@H]23)OCO4)cc(OC)c1O [Etoposide]	0.034 µM
CS(=O)(=O)N1CCN(Cc2cc3nc(-c4cccc5[nH]ncc45)nc(N4CCOCC4)c3s2)CC1 [GDC 0941]	5.4 µM
COc1cc2ncnc(Nc3ccc(F)c(Cl)c3)c2cc1OCCCN1CCOCC1 [Gefitinib]	12.5 µM
Nc1ccn([C@@H]2O[C@H](CO)[C@@H](O)C2(F)F)c(=O)n1 [Gemcitabine]	0.1 µM
NC(=O)NO [Hydroxyurea]	78 µM
CCc1c2c(nc3ccc(OC(=O)N4CCC(N5CCCCC5)CC4)cc13)-c1cc3c(c(=O)n1C2)COC(=O)[C@]3(O)CC [Irinotecan]	2.1 µM
CN(Cc1cnc2nc(N)nc(N)c2n1)c1ccc(C(=O)N[C@@H](CCC(=O)O)C(=O)O)cc1 [Methotrexate]	0.033 µM
O=C1c2c(O)ccc(O)c2C(=O)c2c(NCCNCCO)ccc(NCCNCCO)c21 [Mitoxantrone]	0.0004 µM
COc1ccc2c(c1OC)C(=O)O[C@@H]2[C@H]1c2c(cc3c(c2OC)OCO3)CCN1C [Noscapine]	58.1 µM
CCN(CC)CCCCNc1ncc2cc(-c3cc(OC)cc(OC)c3)c(NC(=O)NC(C)(C)C)nc2n1 [PD 173074]	4.2 µM
CC(=O)O[C@H]1C(=O)[C@@]2(C)[C@H]([C@H](OC(=O)c3ccccc3)[C@]3(O)C[C@H](OC(=O)[C@H](O)[C@@H](NC(=O)c4ccccc4)c4ccccc4)C(C)=C1C3(C)C)[C@]1(OC(C)=O)CO[C@@H]1C[C@@H]2O [Paclitaxel]	0.008 µM
CO[C@H]1C[C@@H]2CC[C@@H](C)[C@@](O)(O2)C(=O)C(=O)N2CCCC[C@H]2C(=O)O[C@H]([C@H](C)C[C@@H]2CC[C@@H](O)[C@H](OC)C2)CC(=O)[C@H](C)/C=C(\C)[C@@H](O)[C@@H](OC)C(=O)[C@H](C)C[C@H](C)/C=C/C=C/C=C/1C [Rapamycin]	15 µM
O=C(CCCCCN1C(=O)c2cccc3cccc(c23)C1=O)NO [Scriptaid]	0.5 µM
CN(N=O)C(=O)N[C@@H](C=O)[C@@H](O)[C@H](O)[C@H](O)CO [Streptozocin]	83 µM
Cn1nnc2c(C(N)=O)ncn2c1=O [Temozolomide]	23.2 µM
CC[C@]1(O)C[C@@H]2CN(CCc3c([nH]c4ccccc34)[C@@](C(=O)OC)(c3cc4c(cc3OC)N(C)[C@H]3[C@@](O)(C(=O)OC)[C@H](OC(C)=O)[C@]5(CC)C=CCN6CC[C@]43[C@@H]65)C2)C1 [Vinblastine]	0.0025 µM
CC[C@]1(O)C[C@H]2CN(CCc3c([nH]c4ccccc34)[C@@](C(=O)OC)(c3cc4c(cc3OC)N(C=O)[C@H]3[C@@](O)(C(=O)OC)[C@H](OC(C)=O)[C@]5(CC)C=CCN6CC[C@]43[C@@H]65)C2)C1 [Vincristine]	0.0015 µM
O=c1ncccn1[C@@H]1O[C@H](CO)[C@@H](O)[C@H]1O [Zebularine]	30 µM

Same assay, conditions: Mus musculus; read-out: Concentration used (LD80-90)

Structure (SMILES)	IC (80-90)
Cn1c(CCCC(=O)O)nc2cc(N(CCCl)CCCl)ccc21 [Bendamustine]	110 µM
CC[C@@]1(O)C(=O)OCc2c1cc1n(c2=O)Cc2cc3ccccc3nc2-1 [Camptothecin]	0.0004 µM
C[C@@]12C(=O)OC(=O)[C@]1(C)[C@H]1CC[C@@H]2O1 [Cantharidin]	10.7 µM
O=NN(CCCl)C(=O)NCCCl [Carmustine]	26.7 µM
O=C(O)CCCc1ccc(N(CCCl)CCCl)cc1 [Chlorambucil]	6.6 µM
COc1cccc2c1C(=O)c1c(O)c3c(c(O)c1C2=O)C[C@@](O)(C(C)=O)C[C@@H]3O[C@H]1C[C@H](N)[C@H](O)[C@H](C)O1 [Daunorubicin]	0.0225 µM
CC[C@H](C)[C@H](NC(=O)[C@H]([C@@H](C)CC)N(C)C(C)=O)C(=O)N[C@H](C(=O)N[C@@H](CC(C)C)C(=O)[C@@]1(C)CO1)[C@@H](C)O [Epoxomicin]	0.045 µM
Nc1nc(F)nc2c1ncn2[C@@H]1O[C@H](CO)[C@@H](O)[C@@H]1O [Fludarabine]	3.8 µM
CN1C(=O)[C@]23CC4=CC=C[C@H](O)[C@H]4N2C(=O)[C@@]1(CO)SS3 [Gliotoxin]	0.3 µM
N[C@@H](Cc1ccc(N(CCCl)CCCl)cc1)C(=O)O [Melphalan]	3.9 µM
CC[C@H](CO)Nc1nc(NCc2ccccc2)c2ncn(C(C)C)c2n1 [Roscovitine]	26.7 µM

Same assay, conditions: concentration at which 80-90% of uninfected lymphoma cells were killed; lowest viability of 24, 48 and 72 h between 10% and 20%

Structure (SMILES)	Concentration used (LD80-90)
COc1cc2c(cc1O)CC[C@@H]1[C@@H]2CC[C@]2(C)[C@@H](O)CC[C@@H]12 [2-Methoxyestradiol]	1.8 µM
C=CCNC1=C2C[C@@H](C)C[C@H](OC)[C@H](O)[C@@H](C)/C=C(\C)[C@H](OC(N)=O)[C@@H](OC)/C=C\C=C(/C)C(=O)NC(=CC1=O)C2=O [17 AAG]	2.6 µM
COc1cc2ncnc(Nc3cccc(Cl)c3)c2cc1OC [AG1478]	19 µM
O=C1C(=O)N(Cc2ccc(Cl)c(Cl)c2)c2ccccc21 [Apoptosis Activator 2]	1.9 µM
N.N.[Cl][Pt][Cl] [Cisplatin]	3.3 µM
CCNC(=O)c1noc(-c2cc(Cl)c(O)cc2O)c1-c1ccc(OC)cc1 [VER-50589]	0.16 µM

Same assay, conditions: figure legend 2c

Structure (SMILES)	LD80-90
Cn1c(CCCC(=O)O)nc2cc(N(CCCl)CCCl)ccc21 [Bendamustine]	110 µM

Same assay, conditions: read-out: Concentration used (LD80-90)

Structure (SMILES)	IC (80-90)
Cc1c2oc3c(C)ccc(C(=O)N[C@@H]4C(=O)N[C@H](C(C)C)C(=O)N5CCC[C@H]5C(=O)N(C)CC(=O)N(C)[C@@H](C(C)C)C(=O)O[C@@H]4C)c3nc-2c(C(=O)N[C@@H]2C(=O)N[C@H](C(C)C)C(=O)N3CCC[C@H]3C(=O)N(C)CC(=O)N(C)[C@@H](C(C)C)C(=O)O[C@@H]2C)c(N)c1=O [Actinomycin D] (I: T[dV]P[Sar][NMeV] / II: T[dV]P[Sar][NMeV]; ester I:1-I:C, II:1-II:C; linker I:N-II:N via Actinocin(9to1))	0.0012 µM
CO[C@@]12[C@H](COC(N)=O)C3=C(C(=O)C(C)=C(N)C3=O)N1C[C@@H]1N[C@@H]12 [Mitomycin C]	0.09 µM

Test system: Eμ-Mycp19^Arf−/− lymphoma cells expressing shRNAs targeting the Bcl2 family, p53 and its activating kinases
Experiment: 29-shRNA GFP competition assay, resistance index (RI), clustering and K-nearest-neighbors
Type: cell-based, mouse
Conditions: shRNA targeting Bim (Bim-dependence)

Structure (SMILES)	log2RI
Nc1ncn([C@H]2C[C@H](O)[C@@H](CO)O2)c(=O)n1 [Decitabine]	≈ 2

Same assay, conditions: shRNA targeting p53 (p53-independence)

Structure (SMILES)	log2RI
Nc1ncn([C@H]2C[C@H](O)[C@@H](CO)O2)c(=O)n1 [Decitabine]	≈ 0

Test system: lymphoma cells expressing shATM, shChk2 or shp53
Experiment: shATM-Chk2-p53 resistance signature
Type: cell-based, mouse
Conditions: not given
Description: (3d) A comparison of the shTopoI and shTopoII response signatures for APG and NSC3852 with response signatures derived from established Topol (CPT and CPT11) and TopoII poisons (Dox, Mito and VP-16). […] In each case, one million cells were plated before treatment.
Eμ-Mycp19^Arf−/− cells were counted and seeded at 1 million cells per ml in 48-well plates and treated with various concentrations of drugs. To approximate therapeutic situations in which drug dose decreases over time, half of the volume from each experiment was removed and replenished with fresh medium every 24 h. Cells were analyzed by fluorescence-activated cell sorting (FACS), with propidium iodide as a viability marker. LD80-90 of drugs are defined as concentrations at which the lowest viability reading out of three FACS time points (24, 48 and 72 h) is between 10% and 20%. After drug dose was determined, Eμ-Mycp19^Arf−/− cells were infected with retroviruses encoding shRNAs targeting particular genes. Individual infected cell populations were counted and seeded at 1 million cells per ml in 48-well plates and treated with drugs using the aforementioned protocol. At 72 h, treated and untreated cells were analyzed by flow cytometry. GFP percentages of live (PI-negative) cells were recorded and used to calculate relative resistance index.
To compare the relative level of chemoresistance and sensitization conferred by each gene knockdown, the concept of RI (see definition above) was introduced, to more accurately analyze the GFP competition results. The value of RI is defined as X. The biological meaning of this factor X is that in a mixture of uninfected and infected (knockdown) cells, the infected (knockdown) cells will be X-fold as likely to survive drug treatment when compared to uninfected cells. By this definition of X, if one out of n uninfected cells survives a drug treatment, then X our of n infected cells should survive. If the total number of uninfected and infected cells are defined as T and the GFP percentage of untreated population are defined as G1, then the number of surviving, uninfected cells (un) can be defined as n−un=T×(1−G1)×1/n, and the number of surviving, infected cells (in) can be defined as n−in=Tx G1×X/n. […] From this equation, it can be derived that X=(G2−G1×G2)/(G1−G1×G2). This equation was used in the studies to compute RI values.

Structure (SMILES)	shATM-Chk2-p53 resistance signature
COc1cccc2c1C(=O)c1c(O)c3c(c(O)c1C2=O)C[C@@](O)(C(=O)CO)C[C@@H]3O[C@H]1C[C@H](N)[C@H](O)[C@H](C)O1 [Doxorubicin]	significant resistance

Same assay, conditions: suppression of ATM, Chk2 and p53

Structure (SMILES)	shATM-Chk2-p53 resistance signature
CC[C@@]1(O)C(=O)OCc2c1cc1n(c2=O)Cc2cc3ccccc3nc2-1 [Camptothecin]	significant resistance
O=C(O)CCCc1ccc(N(CCCl)CCCl)cc1 [Chlorambucil]	significant resistance
N.N.[Cl][Pt][Cl] [Cisplatin]	significant resistance
